Molecular target: T1, RORgT (Homo sapiens, UniProt P51449)
T1 construct: Gal4 (fusion partner); expressed in transfected cells; host or cells: engineered Jurkat cells (Jurkat pEx/Gal/hRORγ CLBD/HYG pG5luc/blast)
T1 sequence (P51449 267-516): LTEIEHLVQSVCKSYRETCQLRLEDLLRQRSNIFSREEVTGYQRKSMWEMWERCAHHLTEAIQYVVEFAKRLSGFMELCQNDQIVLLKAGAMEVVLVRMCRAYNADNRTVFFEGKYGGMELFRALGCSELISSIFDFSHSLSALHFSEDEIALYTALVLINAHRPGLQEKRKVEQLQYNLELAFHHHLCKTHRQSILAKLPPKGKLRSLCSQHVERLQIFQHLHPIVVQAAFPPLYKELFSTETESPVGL
Assay: RORgT Gal4 Luciferase Reporter Gene Assay
Type: cell-based
Conditions: engineered Jurkat cells overexpressing RORgT (LBD or full length) with Gal4 Luc reporter; 18 hours at 37° C.; 40 μM to 0.67 nM; read-out: RORg_GAL4 EC50
How it was run: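 Cells exposed to compound 18 hours at 37° C, then lysed for luciferase luminescence. Inhibition of constitutive activity expressed as percent reduction of signal window relative to a control compound.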

| Structure (SMILES) | EC50 |
| --- | --- |
| COc1ccc(Oc2c(Cl)ccc(C(=O)NCCCn3ccnc3)c2Cl)cc1C(C)C [Example 80] | 287 nM |
| COc1ccc(Oc2c(Cl)ccc(C(=O)N3CCN(c4ccccc4)CC3)c2Cl)cc1C(C)C [Example 214] | 434 nM |
| COc1ncc(Oc2c(Cl)ccc(C(=O)NCC3CCN(S(C)(=O)=O)CC3)c2Cl)cc1C(C)(C)F [Example 153] | 195 nM |
| COc1ccc(Oc2c(Cl)cc(NC(=O)OCCS(C)(=O)=O)cc2Cl)cc1C(C)C [Example 1, 2-(methylsulfonyl)ethyl (3,5-dichloro-4-(3-isopropyl-4-methoxyphenoxy)phenyl)carbamate] | 829 nM |
| COc1ccc(Oc2c(F)cc(NC(=O)Cc3cccnc3)cc2F)cc1C1CC1 [Example 39, N-(4-(3-cyclopropyl-4-methoxyphenoxy)-3,5-difluorophenyl)-2-(pyridin-3-yl)acetamide] | 3130 nM |
| COCCN(C)C(=O)c1ccc(Cl)c(Oc2ccc(OC)c(C(C)C)c2)c1Cl [Example 182] | 355 nM |
| COc1ccc(Oc2c(Cl)ccc(C(=O)NCc3cccc(S(C)(=O)=O)c3)c2Cl)cc1C(C)C [Example 82] | 7600 nM |
| COc1ccc(Oc2c(Cl)ccc(C(=O)NCC#N)c2Cl)cc1C(C)C [Example 201] | 511 nM |
| COc1ccc(Oc2c(Cl)cc(NC(=O)c3ccccc3)cc2Cl)cc1C(C)C [Example 299] | 20000 nM |
| COC(=O)c1cccc(C(=O)Nc2cc(Cl)c(Oc3ccc(OC)c(C(C)C)c3)c(Cl)c2)c1 [Example 288] | 1270 nM |
| COc1ccc(Oc2c(Cl)ccc(C(=O)NCc3cccc(Cl)c3)c2Cl)cc1C(C)C [Example 198] | 872 nM |
| COc1ccc(Oc2c(Cl)cc(NC(=O)CCn3ccc(S(C)(=O)=O)n3)cc2Cl)cc1C(C)C [Example 252] | 264 nM |
| COc1ccc(Oc2c(Cl)cc(NC(=O)Nc3cccnc3)cc2Cl)cc1C(C)C [Example 232] | 285 nM |
| COc1ccc(Oc2c(Cl)cc(NC(=O)CN3CC[C@@H](NS(=O)(=O)C4CC4)C3)cc2Cl)cc1C(C)C [Example 161] | 2330 nM |
| CCS(=O)(=O)N1CC2(CN(CC(=O)Nc3cc(Cl)c(Oc4ccc(OC)c(C(C)C)c4)c(Cl)c3)C2)C1 [Example 190] | 989 nM |
| COc1ccc(Oc2c(Cl)cc(NC(=O)C3(c4cnccn4)CC3)cc2Cl)cc1C(C)C [Example 346] | 816 nM |
| COc1ccc(Oc2c(Cl)cc(NC(=O)Cc3cccc(C(N)=O)c3)cc2Cl)cc1C(C)C [Example 5, 3-(2-((3,5-dichloro-4-(3-isopropyl-4-methoxyphenoxy)phenyl)amino)-2-oxoethyl)benzamide] | 437 nM |
| COc1ccc(Oc2c(Cl)cc(NC(=O)CN3CCC[C@@H](NS(C)(=O)=O)C3)cc2Cl)cc1C(C)C [Example 171] | 2590 nM |
| CCS(=O)(=O)Nc1cc(Cl)c(Oc2ccc(OC)c(C(C)C)c2)c(Cl)c1 [Example 33, N-(3,5-dichloro-4-(3-isopropyl-4-methoxyphenoxy)phenyl)ethanesulfonamide] | 4280 nM |
| COc1ccc(Oc2c(Cl)cc(NC(=O)CC3CCCN(S(C)(=O)=O)C3)cc2Cl)cc1C(C)C (single isomer, unassigned) [Example 43, N-(3,5-dichloro-4-(3-isopropyl-4-methoxyphenoxy)phenyl)-2-(1-(methylsulfonyl)piperidin-3-yl)acetamide] | 246 nM |
| CC(C)c1cc(Oc2c(Cl)cc(NC(=O)Cc3cccnc3)cc2Cl)ccc1C1CC1 [Example 324] | 214 nM |
| CC(C)c1cc(F)cc(Oc2c(Cl)cc(NC(=O)NC3CCCN(S(C)(=O)=O)C3)cc2Cl)c1 (centres unmarked) [Example 26, 1-(3,5-dichloro-4-(3-fluoro-5-isopropylphenoxy)phenyl)-3-(1-(methylsulfonyl)piperidin-3-yl)urea] | 322 nM |
| COc1ccc(Oc2c(Cl)cc(NC(=O)Cc3cncc(C(N)=O)c3)cc2Cl)cc1C(C)C [Example 6, 5-(2-((3,5-dichloro-4-(3-isopropyl-4-methoxyphenoxy)phenyl)amino)-2-oxoethyl)nicotinamide] | 533 nM |
| COc1ccc(Oc2c(Cl)ccc(C(=O)N3CCN(C)CC3)c2Cl)cc1C(C)C [Example 196] | 200 nM |
| COC(=O)NCC1CN(c2cc(Cl)c(Oc3ccc(OC)c(C(C)C)c3)c(Cl)c2)C(=O)O1 (centres unmarked) [Example 251] | 433 nM |
| COc1ccc(Oc2c(Cl)ccc(N(C)C(=O)C(C)c3ccc(S(C)(=O)=O)cc3)c2Cl)cc1C(C)C (centres unmarked) [Example 66] | 268 nM |
| COc1ccc(Oc2c(Cl)cc(NC(=O)Cc3cnccn3)cc2Cl)cc1C(C)C [Example 286] | 316 nM |

The next compounds have a lower EC50 than those just listed; values first:

| EC50 | Structure (SMILES) |
| --- | --- |
| 185 nM | COc1ccc(Oc2c(Cl)cc(NC(=O)Cn3ccnc3)cc2Cl)cc1C(C)C [Example 302] |
| 141 nM | COc1ccc(Oc2c(Cl)ccc(C(=O)NC[C@H]3CC[C@H](C(=O)O)CC3)c2Cl)cc1C(C)C [Example 70] |
| 120 nM | COc1ccc(Oc2c(Cl)cc(NC(=O)C[C@H]3CCCN(S(C)(=O)=O)C3)cc2Cl)cc1C(C)C [Example 44, (R)—N-(3,5-dichloro-4-(3-isopropyl-4-methoxyphenoxy)phenyl)-2-(1-(methylsulfonyl)piperidin-3-yl)acetamide] |
| 102 nM | COc1ccc(Oc2c(Cl)ccc(C(=O)NCc3ccc(C#N)cc3)c2Cl)cc1C(C)C [Example 228] |
| 95 nM | COc1ccc(Oc2c(Cl)cc(NC(=O)CC3CCCN(S(=O)(=O)C4CC4)C3)cc2Cl)cc1C(C)C (centres unmarked) [Example 317] |
| 93 nM | COc1ccc(Oc2c(Cl)cc(NC(=O)CN3CCC(NS(C)(=O)=O)CC3)cc2Cl)cc1C(C)C [Example 169] |
| 78 nM | CS(=O)(=O)N1CCN(CC(=O)Nc2cc(Cl)c(Oc3ccc(F)c(C4CC4)c3)c(Cl)c2)CC1 [Example 271] |
| 39 nM | COc1ccc(Oc2c(Cl)ccc(C(=O)N(C)Cc3ccc(S(N)(=O)=O)cc3)c2Cl)cc1C(C)C [Example 110] |
| 32 nM | CCS(=O)(=O)N1CCN(CC(=O)Nc2cc(Cl)c(Oc3ccc(OC)c(C(C)C)c3)c(Cl)c2)CC1 [Example 313] |
| 30 nM | COc1ccc(Oc2c(Cl)ccc(C(=O)NC(C)c3ccc(S(C)(=O)=O)cc3)c2Cl)cc1C(C)C (centres unmarked) [Example 105] |
| 28 nM | CC1(c2cc(F)cc(Oc3c(Cl)ccc(C(=O)NCC4CCN(S(C)(=O)=O)CC4)c3Cl)c2)CC1 [Example 52, 2,4-dichloro-3-(3-fluoro-5-(1-methylcyclopropyl)phenoxy)-N-((1-(methylsulfonyl)piperidin-4-yl)methyl)benzamide] |
| 26 nM | COc1ccc(Oc2c(Cl)cc(NC(=O)Cc3cccc(S(C)(=O)=O)c3)cc2Cl)cc1C(C)C [Example 231] |
| 24 nM | COc1ccc(Oc2c(Cl)ccc(C(=O)NCC3CCN(S(=O)(=O)C4CC4)CC3)c2Cl)cc1C(C)C [Example 92] |
| 19 nM | CC(C)c1cc(F)cc(Oc2c(Cl)cc(NC(=O)CC3CCN(S(C)(=O)=O)CC3)cc2Cl)c1 [Example 258] |
| 18 nM | COc1ccc(Oc2c(Cl)cc(NC(=O)CC3CCN(S(C)(=O)=O)CC3)cc2Cl)cc1C(C)C [Example 45, N-(3,5-dichloro-4-(3-isopropyl-4-methoxyphenoxy)phenyl)-2-(1-(methylsulfonyl)piperidin-4-yl)acetamide] |
| 17 nM | CC(c1cc(F)cc(Oc2c(Cl)ccc(C(=O)NCc3ccc(S(N)(=O)=O)cc3)c2Cl)c1)C(F)(F)F (centres unmarked) [Example 356] |

| EC50 | Structure (SMILES) |
| --- | --- |
| 16 nM | CCS(=O)(=O)c1ccc(CC(=O)Nc2cc(Cl)c(Oc3ccc(OC)c(C(C)C)c3)c(Cl)c2)cc1 [Example 307] |
| 14 nM | CC(C)c1cc(F)cc(Oc2c(Cl)ccc(C(=O)N3CCC4(CC3)CN(S(C)(=O)=O)C4)c2Cl)c1 [Example 112] |
| 14 nM | COc1ccc(Oc2c(Cl)cc(NC(=O)Cc3ccc(S(C)(=O)=O)cc3)cc2Cl)cc1C(C)(C)F [Example 336] |
| 13 nM | CC(C)c1cc(F)cc(Oc2c(Cl)ccc(C(=O)NC(C)c3ccc(S(C)(=O)=O)cc3)c2Cl)c1 (centres unmarked) [Example 136] |
| 12 nM | COc1ccc(Oc2c(Cl)ccc(C(=O)NCC3CCN(S(C)(=O)=O)CC3)c2Cl)cc1C(C)C [Example 86] |
| 11 nM | COc1ncc(Oc2c(Cl)ccc(NC(=O)CC3CCN(S(C)(=O)=O)CC3)c2Cl)cc1C(C)C [Example 129] |
| 9.6 nM | COc1ncc(Oc2c(Cl)ccc(CNC(=O)C3CCN(S(N)(=O)=O)CC3)c2Cl)cc1C(C)C [Example 147] |
| 8.2 nM | CC(C)c1cc(F)cc(Oc2c(Cl)ccc(CNC(=O)c3ccc(S(N)(=O)=O)cc3)c2Cl)c1 [Example 150] |
| 7.6 nM | CC(C)c1cc(F)cc(Oc2c(Cl)cc(NC(=O)CN3CCN(S(C)(=O)=O)CC3)cc2Cl)c1 [Example 332] |
| 6.6 nM | COc1ncc(Oc2c(Cl)ccc(C(=O)NCc3ccc(S(N)(=O)=O)cc3)c2Cl)cc1C(C)(C)F [Example 154] |
| 6.1 nM | CC(C)c1cc(F)cc(Oc2c(Cl)ccc(C(=O)NCc3ccc(S(N)(=O)=O)cc3)c2Cl)c1 [Example 16, 2,4-dichloro-3-(3-fluoro-5-isopropylphenoxy)-N-(4-sulfamoylbenzyl)benzamide] |
| 5.4 nM | COc1ncc(Oc2c(Cl)ccc(C(=O)NCc3ccc(S(C)(=O)=O)cc3)c2Cl)cc1C(C)C [Example 123] |
| 5.2 nM | CC(C)c1cc(Oc2c(Cl)ccc(C(=O)NCc3ccc(S(N)(=O)=O)cc3)c2Cl)ccc1F [Example 114] |
| 5.1 nM | CC1(c2cc(F)cc(Oc3c(Cl)ccc(C(=O)NCc4ccc(S(C)(=O)=O)cc4)c3Cl)c2)CC1 [Example 276] |
| 2.7 nM | CC(C)c1cc(Oc2c(Cl)ccc(C(=O)NCc3ccc(S(C)(=O)=O)cc3)c2Cl)ccc1F [Example 131] |
| 1.7 nM | CC1(c2cc(F)cc(Oc3c(Cl)ccc(C(=O)NCc4ccc(S(N)(=O)=O)cc4)c3Cl)c2)CC1 [Example 278] |

Source: patent publication US20220306630A1, “AGONISTS OF ROR GAMMAt” (BRISTOL-MYERS SQUIBB COMPANY, priority 2019, published 2022)
